Measurements taken from patent US6524595B1, “Cyclodextrins preferentially substituted on their primary face by acid or amine functions” (priority 2000, dated 2003).

Legend:
[1] = Cutaneous penetration test of caffeine on Franz cell (diffusion, release, storage); type: in vitro ADME, rat; details: for average quantity of caffeine per unit surface diffused into the receptor chamber: 2 g deposited, 2.54 cm^2 Franz cell, PBS receptor
Description: The receptor chamber was constituted by a PBS buffer and antibiotics. Diffusion was monitored over time by sampling from the receptor chamber and analysis by high performance liquid chromatography. […] After rinsing the biopsy used in the diffusion study, it was kept in the Franz cell for 24 hours without donors. The quantity of active ingredient liberated in the PBS buffer was then analyzed by HPLC, to study the ability of the skin to temporarily retain the test solution (Release study).

[2] = Cutaneous penetration study of vitamin E on Franz cell (diffusion, release, storage); type: in vitro ADME, rat; details: for percentage of vitamin E diffused: 2 g deposited, 2.54 cm^2 Franz cell, ethoxydiglycol receptor
Description: Cutaneous penetration studies were carried out on products 26-a, 26-b, 26-c and 26-d from example 26. […] The receptor chamber was constituted by ethoxydiglycol and antibiotics. Diffusion was monitored over time by sampling from the receptor chamber then HPLC analysis (fluorescence). […] After rinsing the biopsy used in the diffusion study, it was kept in the Franz cell for 24 hours without donors. The quantity of active ingredient liberated in the ethoxydiglycol was then analyzed by HPLC, underlining the ability of the skin to temporarily retain the test solution (release study).

[3] = Vitamin E determination by HPLC (fluorescence); type: physicochemical
Description: The vitamin E content was determined by HPLC (fluorescence) and evaluated for each sample: […]

[4] = Aspect of the solution obtained / nanoparticle formation; type: physicochemical
Description: The solution was then added at a constant rate (1 ml/s) to distilled water (450 ml) with stirring to form a milky solution. […] The procedure of example 15 was followed but instead of using the compound obtained in example 2, a commercial β-cyclodextrin with an identical molar concentration was used.

skin of rabbits = test: Evaluation of primary dermal irritation in the rabbit; type: in vivo; details: 10% in a 0.5% xanthan gel, undiluted, 0.5 ml
Description: Toxicological tests were carried out on the compound obtained in example 2a incorporated in an amount of 10% into a 0.5% xanthan gel, by occular evaluation in the rabbit, by a study of the absence of abnormal toxicity by a single oral administration to the rat and by a sensitization power study in the guinea-pig.
At the same time, a toxicological study was carried out under the same experimental conditions on commercial β-cyclodextrin incorporated in an amount of 10% into a 0.5% xanthan gel.
The preparations described above were applied undiluted in a dose of 0.5 ml to the skin of 3 rabbits using the method recommended by the OECD directive regarding the study of “The acute dermal irritant/corrosive effect”.
The products were classified in accordance with the criteria in the order of Feb. 1, 1982 published in the JORF [Official journal of the French Republic] on Feb. 2, 1982.

[5] = biopsy in ethanolic solution 24 hours after release study
[6] = rinsed biopsy kept in Franz cell 24 hours without donors

Q: For `Cn1c(=O)c2c(ncn2C)n(C)c1=O` [Caffeine free, caffeine], which “average quantity of caffeine per unit surface diffused into the receptor chamber” value ([1]; 0 hours) is on record?
A: 0 μg/cm^2

Q: What about the “average quantity of caffeine per unit surface diffused into the receptor chamber” value ([1]; 24 hours) of the same compound?
A: 1783 μg/cm^2

Q: What about the “Storage (caffeine still present in the skin)” value [1, 5] of the same compound?
A: 26.57 ± 6.55 μg/cm2

Q: And the “Release (caffeine liberated in the PBS buffer)” value [1, 6]?
A: 286.8 ± 28.36 μg/cm2

Q: For `Cc1c(C)c2c(c(C)c1O)CC[C@@](C)(CCC[C@H](C)CCC[C@H](C)CCCC(C)C)O2` [Example 26-d, vitamin E], which “percentage of vitamin E diffused” value ([2]; 0 hours) is on record?
A: 0

Q: And the “percentage of vitamin E diffused” value ([2]; 48 hours)?
A: 10.32%

Q: And the “Storage (vitamin E still present in the skin)” value [2, 5]?
A: 1.74 ± 0.24 % diffusion

Q: What about the “Release (vitamin E liberated in the ethoxydiglycol)” value [2, 6] of the same compound?
A: 3.33 ± 0.9 % diffusion

Q: What about the “Vitamin E determination (vitamin E content of sample)” value ([3]; 0.1% of vitamin E used) of the same compound?
A: 0.0943%

Q: For `OC[C@H]1O[C@@H]2O[C@H]3[C@H](O)[C@@H](O)[C@@H](O[C@H]4[C@H](O)[C@@H](O)[C@@H](O[C@H]5[C@H](O)[C@@H](O)[C@@H](O[C@H]6[C@H](O)[C@@H](O)[C@@H](O[C@H]7[C@H](O)[C@@H](O)[C@@H](O[C@H]8[C@H](O)[C@@H](O)[C@@H](O[C@H]1[C@H](O)[C@H]2O)O[C@@H]8CO)O[C@@H]7CO)O[C@@H]6CO)O[C@@H]5CO)O[C@@H]4CO)O[C@@H]3CO` [commercial β-cyclodextrin, β-cyclodextrin], which “solubility in water (in words)” value [4] is on record?
A: soluble in water

Q: What about the “nanoparticle formation (in words)” value ([4]; nanoparticle protocol with commercial β-cyclodextrin at identical molar concentration) of the same compound?
A: no nanoparticles are formed

Q: And the “primary dermal irritation classification” value (skin of rabbits)?
A: slight irritant for the skin

Q: What does the source list for (Lauroate)y-β-cyclodextrin [Example 2a]?
A: encapsulation of vitamin E (in words) [3]: encapsulated the vitamin E highly effectively; primary dermal irritation classification (skin of rabbits): non irritant to the skin
